Reference: PMC11945486, “TAS1R2/TAS1R3 Single-Nucleotide Polymorphisms Affect Sweet Taste Receptor Activation by Sweeteners: The SWEET Project” (Nutrients, 2025)
No end group written: not given here.

B1: thaumatin (protein)
chain: ATFEIVNRCSYTVWAAASKGDAALDAGGRQLNSGESWTINVEPGTKGGKIWARTDCYFDDSGSGICKTGDCGGLLRCKRFGRPPTTLAEFSLNQYGKDYIDISNIKGFNVPMDFSPTTRGCRGVRCAADIVGQCPAKLKAPGGGCNDACTVFQTSEYCCTTGKCGPTEYSRFFKRLCPDAFSYVLDKPTTVTCPGSSNYRVTFCPTA
modifications: Eight disulfides
notes: sweet-tasting plant protein, E957

Biological target: T1, human TAS1R2-I595T/TAS1R3-WT (Homo sapiens, UniProt Q7RTX0+Q8TE23, I595T)
T1 construct: expressed in transfected cells; host or cells: HEK293T-Gα16gust44
T1 sequence (Q8TE23 20-839 I595T): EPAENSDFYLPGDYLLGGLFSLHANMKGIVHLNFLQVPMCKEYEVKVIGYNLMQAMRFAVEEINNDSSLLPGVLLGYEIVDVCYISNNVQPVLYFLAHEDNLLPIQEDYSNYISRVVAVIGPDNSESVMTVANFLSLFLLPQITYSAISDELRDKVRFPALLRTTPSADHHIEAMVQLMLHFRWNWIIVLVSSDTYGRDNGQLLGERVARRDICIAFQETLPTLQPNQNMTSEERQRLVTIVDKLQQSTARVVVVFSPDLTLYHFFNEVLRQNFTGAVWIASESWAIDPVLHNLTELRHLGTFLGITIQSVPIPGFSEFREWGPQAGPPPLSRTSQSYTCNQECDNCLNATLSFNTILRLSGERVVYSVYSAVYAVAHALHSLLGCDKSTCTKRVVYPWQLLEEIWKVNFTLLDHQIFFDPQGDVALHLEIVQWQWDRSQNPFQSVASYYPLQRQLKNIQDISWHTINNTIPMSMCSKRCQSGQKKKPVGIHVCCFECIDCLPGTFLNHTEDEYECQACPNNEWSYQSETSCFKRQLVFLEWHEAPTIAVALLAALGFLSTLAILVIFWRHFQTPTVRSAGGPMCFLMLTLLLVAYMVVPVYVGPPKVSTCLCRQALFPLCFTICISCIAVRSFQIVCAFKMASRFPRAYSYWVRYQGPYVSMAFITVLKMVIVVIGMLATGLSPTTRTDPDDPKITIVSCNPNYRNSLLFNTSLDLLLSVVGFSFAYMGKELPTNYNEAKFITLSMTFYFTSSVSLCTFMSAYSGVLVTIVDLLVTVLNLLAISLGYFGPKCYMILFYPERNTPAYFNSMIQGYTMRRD
T1 sequence (Q7RTX0 21-852): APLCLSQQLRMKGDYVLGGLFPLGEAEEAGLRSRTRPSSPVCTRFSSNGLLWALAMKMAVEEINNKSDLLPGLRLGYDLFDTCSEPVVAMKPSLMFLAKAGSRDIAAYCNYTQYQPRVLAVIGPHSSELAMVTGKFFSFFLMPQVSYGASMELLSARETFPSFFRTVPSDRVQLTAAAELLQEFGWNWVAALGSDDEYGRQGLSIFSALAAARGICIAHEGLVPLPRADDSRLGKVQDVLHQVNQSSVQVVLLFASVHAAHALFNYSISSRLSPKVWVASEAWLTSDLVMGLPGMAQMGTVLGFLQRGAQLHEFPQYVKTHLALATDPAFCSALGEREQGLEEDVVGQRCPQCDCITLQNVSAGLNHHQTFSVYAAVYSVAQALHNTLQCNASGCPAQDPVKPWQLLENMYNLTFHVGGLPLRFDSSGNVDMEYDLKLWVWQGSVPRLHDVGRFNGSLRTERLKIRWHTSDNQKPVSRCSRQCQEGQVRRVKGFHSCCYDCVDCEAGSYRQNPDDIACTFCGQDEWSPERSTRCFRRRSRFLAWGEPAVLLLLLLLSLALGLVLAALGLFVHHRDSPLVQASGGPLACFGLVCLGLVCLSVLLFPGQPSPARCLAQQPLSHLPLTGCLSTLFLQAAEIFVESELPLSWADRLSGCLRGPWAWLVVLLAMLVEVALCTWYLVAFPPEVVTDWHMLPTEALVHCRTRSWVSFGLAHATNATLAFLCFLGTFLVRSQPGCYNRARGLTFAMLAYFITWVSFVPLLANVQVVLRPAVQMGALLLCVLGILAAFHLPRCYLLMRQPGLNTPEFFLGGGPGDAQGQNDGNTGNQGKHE
Assay: Calcium mobilisation assay, TAS1R2 variant I595T with TAS1R3-WT
Assay type: cell-based
Conditions: "-": no activation; for Max ΔF/F0: maximal signal amplitude
Description: The coding sequences for TAS1R2 and TAS1R3 were commercially synthesised, and the human codon was optimised for expression in human cells. The coding sequences of human TAS1R2 and TAS1R3 were subcloned and inserted into the mammalian expression vectors pcDNA6/myc-HisA and pcDNA4/myc-HisA (Invitrogen; Thermo Fisher Scientific; Illkirch, France) between the EcoRI and NotI restriction sites, generating the plasmids pcDNA6-TAS1R2 and pcDNA4-TAS1R3, respectively. To increase protein expression in mammalian cells, an upstream start codon was used, which was a sequence called MAX, corresponding to the QBI SP163 element also described in pcDNA4-HisMax (Invitrogen; Thermo Fisher Scientific; Illkirch, France). To measure the expression level of the receptor by immunohistochemistry, we used the FLAG sequence ([…]) in the C-terminal position, which encodes the FLAG tag epitope. SNP variants of TAS1R2 and TAS1R3 were constructed based on […], respectively, using site-directed mutagenesis (Genewiz; Leipzig, Germany).
The HEK293T cells were kindly provided by Jay P. Slack (Givaudan Flavors Corporation; Cincinnati, OH, USA). HEK293T cells stably transfected with Gα16gust44 [43, 67] were seeded in poly-D-lysine-coated clear-bottom black 96-well plates (0.35 × 10^5 cells/well) in high-glucose DMEM supplemented with 2 mM GlutaMAX, 10% dialysed foetal bovine serum with penicillin/streptomycin and G418 (400 μg/mL) at 37 °C and 6.3% CO2 in a humidified atmosphere as previously reported. […] As a negative control, HEK293T cells were mock-transfected with the empty expression vector. After a further 24 h of incubation, the HEK293T cells were washed with C1 buffer (130 mM NaCl, 5 mM KCl, 10 mM HEPES pH 7.4 and 2 mM CaCl2). The 96-well plates containing the cells were then stimulated with sweet-tasting compounds. […] Different concentration ranges were tested depending on the sweet compound injected. The Ca^2+ changes were expressed as fractional changes in fluorescent light intensity: ΔF/F = (F − F0)/F0, where F was the fluorescent light intensity at each point, and F0 was the value of emitted fluorescent light prior to stimulus application. To calculate dose–response relationships, the changes in fluorescence upon stimulus application were averaged, mock-subtracted and baseline-corrected. The dose–response data obtained were adjusted using a 4-parameter logistic equation. The half-maximal effective concentrations (EC50 values) and maximal signal amplitudes were calculated using SigmaPlot software (version 15.0) (Systat Software; San Jose, CA, USA).
For in vitro calcium mobilisation assay performed on hTAS1R2-SNPs, hTAS1R3-SNPs and mTAS1R3-I60T, 6 to 7 concentrations were tested for each sweet compound, plus buffer alone. All concentration–receptor combinations were measured in duplicate, and each experiment was repeated at least 4 times (8 wells/concentration). Results were expressed for each concentration as ΔF/F mean ± SEM and represented as dose–response curves.

| Molecule | EC50 | R1 = Variant EC50/WT EC50 | Max ΔF/F0 |
| --- | --- | --- | --- |
| C=C(C)[C@@H]1CC=C(/C=N/O)CC1 [Perillartine, perillartine] | 53.2 ± 1.6 µM | 3.0 | 0.51 ± 0.01 |
| O=S(=O)(O)NC1CCCCC1 [Cyclamate, cyclamate] | 2030 ± 102 µM |  |  |
| C=C1C[C@@]23CC[C@H]4[C@@](C)(CCC[C@@]4(C)C(=O)O[C@@H]4O[C@H](CO)[C@@H](O)[C@H](O[C@@H]5O[C@H](CO)[C@@H](O)[C@H](O)[C@H]5O)[C@H]4O[C@@H]4O[C@H](CO)[C@@H](O)[C@H](O)[C@H]4O)[C@@H]2CC[C@]1(O[C@@H]1O[C@H](CO)[C@@H](O)[C@H](O[C@@H]2O[C@H](CO)[C@@H](O)[C@H](O)[C@H]2O)[C@H]1O[C@@H]1O[C@H](CO)[C@@H](O)[C@H](O)[C@H]1O)C3 [Rebaudioside M, rebaudioside M] | 35.8 ± 4 µM | 2.1 | 0.23 ± 0.01 |
| OC[C@H]1O[C@H](O[C@]2(CCl)O[C@H](CCl)[C@@H](O)[C@@H]2O)[C@H](O)[C@@H](O)[C@H]1Cl [Sucralose] | 108 ± 5 µM | 1.2 | 0.08 ± 0.02 |
| CC1=CC(=O)NS(=O)(=O)O1 [Acesulfame K, acesulfame K] | 300 ± 139 µM | 0.4 | 0.02 ± 0.01 |
| brazzein (QDKCKKVYENYPVSKCQLANQCNYDCKLDKHARSGECFYDEKRNLQCICDYCEY; ends and bridges not checked; cysteine pairing not given here; UniProt P56552 1-54, looked up) [sweet-tasting protein obtained by recombinant production using the yeast Pichia pastoris] |  | 10.8 | 0.13 ± 0.02 |
| thaumatin |  | 3.7 | 0.39 ± 0.01 |
| COC(=O)[C@H](Cc1ccccc1)NC(=O)[C@H](CC(=O)O)NCCC(C)(C)C [Neotame] | 1.27 ± 0.18 µM | 1.5 | 0.09 ± 0.01 |
| C[C@H](CC[C@@H](O[C@@H]1O[C@H](CO[C@@H]2O[C@H](CO)[C@@H](O)[C@H](O)[C@H]2O)[C@@H](O)[C@H](O)[C@H]1O[C@@H]1O[C@H](CO)[C@@H](O)[C@H](O)[C@H]1O)C(C)(C)O)[C@H]1CC[C@@]2(C)[C@@H]3CC=C4[C@@H](CC[C@H](O[C@@H]5O[C@H](CO[C@@H]6O[C@H](CO)[C@@H](O)[C@H](O)[C@H]6O)[C@@H](O)[C@H](O)[C@H]5O)C4(C)C)[C@]3(C)[C@H](O)C[C@]12C [Mogroside V, mogroside V] | 31.4 ± 6 µM | 1.8 | 0.27 ± 0.03 |
| COc1ccc(CCC(=O)c2c(O)cc(O[C@@H]3O[C@H](CO)[C@@H](O)[C@H](O)[C@H]3O[C@@H]3O[C@@H](C)[C@H](O)[C@@H](O)[C@H]3O)cc2O)cc1O [NHDC, neohesperidin dihydrochalcone] | 70.3 ± 1.3 µM | 0.9 | 0.09 ± 0.01 |
| B1 | 27.8 ± 1.4 µM |  |  |
